# From ChEMBL document CHEMBL5729768, “Azalactam compounds as HPK1 inhibitors” (2023)
# Assays:
# [1] = molecular target: T1, Serine/threonine-protein kinase D2 (Homo sapiens, UniProt Q9BZL6)
# T1 sequence (Q9BZL6 whole entry): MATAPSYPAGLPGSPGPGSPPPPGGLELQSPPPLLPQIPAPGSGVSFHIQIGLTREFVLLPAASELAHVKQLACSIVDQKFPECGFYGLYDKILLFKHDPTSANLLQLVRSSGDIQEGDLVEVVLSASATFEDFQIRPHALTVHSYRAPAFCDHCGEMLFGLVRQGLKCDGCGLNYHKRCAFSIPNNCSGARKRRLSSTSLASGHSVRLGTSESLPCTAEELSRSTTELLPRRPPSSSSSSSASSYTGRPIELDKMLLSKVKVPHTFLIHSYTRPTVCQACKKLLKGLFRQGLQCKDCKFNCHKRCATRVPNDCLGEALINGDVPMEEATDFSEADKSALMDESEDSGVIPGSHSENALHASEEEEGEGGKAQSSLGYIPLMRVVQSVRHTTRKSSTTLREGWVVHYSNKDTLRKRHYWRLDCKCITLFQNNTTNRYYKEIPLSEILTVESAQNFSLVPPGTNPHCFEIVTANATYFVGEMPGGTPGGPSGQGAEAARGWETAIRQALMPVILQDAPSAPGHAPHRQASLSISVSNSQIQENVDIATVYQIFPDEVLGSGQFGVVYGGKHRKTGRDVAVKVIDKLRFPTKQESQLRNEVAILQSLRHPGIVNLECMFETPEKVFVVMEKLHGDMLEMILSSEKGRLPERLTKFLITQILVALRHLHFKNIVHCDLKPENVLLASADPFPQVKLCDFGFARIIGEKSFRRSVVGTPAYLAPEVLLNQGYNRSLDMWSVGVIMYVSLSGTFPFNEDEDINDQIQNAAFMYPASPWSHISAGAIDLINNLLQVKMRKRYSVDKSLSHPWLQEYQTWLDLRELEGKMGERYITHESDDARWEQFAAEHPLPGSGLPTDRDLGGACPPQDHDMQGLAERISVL
# [2] = molecular target: Ribosomal protein S6 kinase alpha-2 (Homo sapiens, UniProt Q15349)
# Sequence of Ribosomal protein S6 kinase alpha-2 (Q15349 whole entry): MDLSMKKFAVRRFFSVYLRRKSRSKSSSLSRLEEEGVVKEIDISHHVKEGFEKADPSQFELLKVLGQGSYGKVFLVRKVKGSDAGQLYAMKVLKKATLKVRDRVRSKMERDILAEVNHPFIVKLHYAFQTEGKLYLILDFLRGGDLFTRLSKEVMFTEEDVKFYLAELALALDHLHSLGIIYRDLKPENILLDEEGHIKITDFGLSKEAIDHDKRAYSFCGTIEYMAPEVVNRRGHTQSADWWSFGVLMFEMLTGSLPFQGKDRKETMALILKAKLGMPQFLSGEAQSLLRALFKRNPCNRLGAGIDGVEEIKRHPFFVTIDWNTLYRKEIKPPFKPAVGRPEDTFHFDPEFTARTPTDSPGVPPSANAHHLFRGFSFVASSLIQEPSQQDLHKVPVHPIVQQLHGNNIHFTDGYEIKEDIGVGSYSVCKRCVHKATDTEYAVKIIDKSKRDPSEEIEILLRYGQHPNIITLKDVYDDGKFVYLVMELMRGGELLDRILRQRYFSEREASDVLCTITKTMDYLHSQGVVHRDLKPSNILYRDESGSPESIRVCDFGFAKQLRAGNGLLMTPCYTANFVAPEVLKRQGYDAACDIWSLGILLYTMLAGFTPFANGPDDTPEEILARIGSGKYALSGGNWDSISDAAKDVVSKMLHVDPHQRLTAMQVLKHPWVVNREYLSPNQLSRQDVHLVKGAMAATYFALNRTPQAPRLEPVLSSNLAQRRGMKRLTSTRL
IC50 [1] [nM],IC50 [2] [nM],Compound
251,53.5,CC[C@@H](N)c1nc(N(C)C(C)C)cc2c1CN(c1cccc(-c3nnc4n3[C@@H](C)CC4)n1)C2=O
942,48.6,COC[C@@H](N)c1nc(C2(C)CC2)cc2c1CN(c1cccc(-c3nnc4n3[C@@H](C)CC4)n1)C2=O
